The nature of data set [1]: Rate measurements of cycloaddition of acetylenes with azides by UV spectroscopy in methanol. The format is physicochemical. The settings on record: 25±0.1° C. How it is done:
The rate measurements of cycloaddition of acetylenes 6c and 4a were conducted by UV spectroscopy at 25±0.1° C. A calculated amount of 0.25 M solutions of an azide required to achieve desired azide concentration (6×10^−4-1.5×10^−2 M) was added to a thermally equilibrated ca. 6×10^−5 M solution of acetylene in MeOH. Reactions were monitored by following the decay of the characteristic absorbance of acetylenes ca. 317 nm (FIG. 6). Consumption of starting material followed a first order equation well and the pseudo-first order rate constants were obtained by the by least-squares fitting of the data to a single exponential equation. The dependence of the observed rates on the concentration of azides was linear.
The rate measurements of the cycloaddition reaction of acetylene 6c with azides was conducted by UV spectroscopy following the decay of the 317 nm band of 6c (as shown in FIG. 6) in the photolysate at various concentrations of azides from about 0.5 mM to about 20 mM). […]
Rate measurements were performed using Carry-300 Bio UV-Vis spectrometer equipped with a thermostatable cell holder. […] A calculated amount of 0.25 M solutions of an azide required to achieve desired azide concentration (6×10^−4−1.5×10^−2M) was added at once. Reactions were monitored by following the decay of the characteristic absorbance of acetylene 6c at approximately 317 nm (FIG. 6). […]

Data set [2] can be described thus: Stability of cyclopropenones (shelf life, elevated temperature, solution). The format is physicochemical. To be noted: 3 days at 40° C. in aqueous and methanol solutions. An excerpt:
Diphenyl cyclopropenones, such as 5a-c, 18a-c, and 19, had long shelf lives, and could withstand elevated temperatures. […] (Poloukhtine & Popik (2003) J. Org. Chem. 68: 7833-7840). The cyclopropenones are also stable in solution in the absence of light.

Regarding “3,9-Dibutoxy-5,6-didehydro-11,12-dihydrodibenzo[a,e][8]annulen-2-yl [6c]”, the “Bimolecular rate constant, Rate” value in data set [1] (1-phenyl-2-azidopropane) turned out to be 0.0343 M⁻¹ s⁻¹; in data set [1] (n-butyl azide), 0.0586 M⁻¹ s⁻¹.

Consider `CCCCOc1ccc2c(c1)CCc1cc(OCCCC)ccc1-c1c-2c1=O` [5c, 4,9-dibutoxy-6,7-dihydro-1H-dibenzo[a,e]cyclopropa[c][8]annulen-1-one], for which, in data set [2], the “Decomposition in solution in the absence of light” value was “no decomposition”.
